US9868715B2 (THE BOARD OF REGENTS OF THE UNIVERSITY OF TEXAS SYSTEMS, priority 2014, dated 2018)

What was measured:
[1] = system: transformed PSC (human pancreatic stellate cells); test: PSC proliferation, AlamarBlue Cell Viability Assay; format: cell-based; details: for Inhibitory Effect (%) on PSC proliferation / inhibition at 10 µM: 10 μM; for Inhibitory Effect (%) on PSC proliferation / inhibition at 5 µM / inhibition at 10 µM / inhibition at 20 µM: mean of at least three independent experiments, NE = No effect; for inhibition at 5 µM / inhibition at 10 µM / inhibition at 20 µM: Homo sapiens, read-out: Inhibitory Effect (%) on PSC proliferation; for Antiproliferative effect on PSC, result in words: transformed PSC, AlamarBlue
Method: The calculated lipophilicity (cLogP) and topological polar surface area (tPSA) values of synthesized analogues are listed in Table 1. […] AlamarBlue is a non-toxic reagent that is converted to a highly fluorescent end product by viable cells.
Under an IRB-approved tissue protocol, discarded human resected pancreatic tissue (500 mm^3) was attained fresh from the operating room at the University of Texas Medical Branch. The tissue was minced and plated on a collagen-coated flask (15 μg/mL, Invitrogen) with DMEM (VWR; Radnor, Pa.) supplemented with penicillin 200 U/mL, streptomycin 200 μg/mL, amphotericin B 0.25 μg/mL and gentimicin 50 μg/mL (Invitrogen, Carlsbad Calif.), 10% fetal bovine serum (Lonza, Walkersville, Md.), 1% insulin-transferrin, selenium-ethanolamine (Gibco, Grand Island, N.Y.), and 1% non-essential amino acids (Sigma-Aldrich, St. Louis, Mo.). The human PSC were isolated by the outgrowth method.^41-43 The purity of PSC culture was confirmed by immunohistochemical staining for vimentin, α-smooth muscle actin, glial fibrillar acidic protein, or Oil red O staining. Primary PSC were transformed and immortalized for use in experiments using lentiviral vectors containing SV40 Large T antigen and human telomerase (plasmid #12245 and 12246; Addgene, Cambridge, Mass.). Cultures were maintained in DMEM with 10% FBS, at 37° C. in a humidified 95% O2/5% CO2 atmosphere.
Cell proliferation assay. Transformed PSC (3×10^3) were plated in 96-well plates, in sextuplicate. […] AlamarBlue reagent (10% sample volume, DAL1025) was added to each well per Invitrogen's protocol. Fluorescence was recorded using excitation/emission wavelengths of 544/590 nm and the SpectraMax M2 Microplate Reader (Molecular Devices, Sunnyvale Calif.).
Statistical analysis. Dose-response curves were generated by plotting fluorescence or absorbance versus log (compound concentration). A best-fit curve was created using nonlinear regression, and the IC50 or EC50 determined from the graph (GraphPad Prism 5; GraphPad Software Inc., La Jolla, Calif.). To analyze continuos variables, unpaired student t-tests and one-way ANOVA with Tukey-Kramer multiple comparisons post-test (GraphPad Prism 5). Significance was set at p<0.05.

[2] = Aqueous solubility by HPLC analysis method; format: physicochemical; details: in the form of HCl salt
[3] = molecular target: T1, human CBS (cystathionine-β-synthase) (Homo sapiens, UniProt P35520); test: H2S production by recombinant CBS; format: biochemical; details: 100 μM compound; H2S production as % of control (100%)
T1 construct: GST (N); made in house; host or cells: E. coli BL21(DE3) Codon Plus
T1 sequence (P35520 1-551): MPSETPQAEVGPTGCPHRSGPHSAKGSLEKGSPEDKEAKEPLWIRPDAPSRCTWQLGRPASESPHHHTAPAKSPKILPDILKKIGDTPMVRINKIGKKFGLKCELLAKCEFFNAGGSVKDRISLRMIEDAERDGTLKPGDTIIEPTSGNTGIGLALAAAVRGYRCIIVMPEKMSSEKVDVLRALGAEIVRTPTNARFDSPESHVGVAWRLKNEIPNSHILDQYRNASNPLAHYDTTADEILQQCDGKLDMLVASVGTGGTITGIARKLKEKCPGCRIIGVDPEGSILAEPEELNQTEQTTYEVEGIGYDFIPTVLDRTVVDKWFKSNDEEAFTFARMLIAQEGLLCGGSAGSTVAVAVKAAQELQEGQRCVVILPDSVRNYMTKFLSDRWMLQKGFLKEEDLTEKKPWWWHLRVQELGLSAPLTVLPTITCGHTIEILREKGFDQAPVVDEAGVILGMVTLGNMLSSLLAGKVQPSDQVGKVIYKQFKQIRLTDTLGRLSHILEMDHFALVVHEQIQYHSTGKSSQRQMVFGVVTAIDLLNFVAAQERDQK
Method: Recombinant human CBS protein expression and purification. The expression and purification of human CBS was performed as described previously (Asimakopoulou et al. 2013, Br J Pharmacol. 169(4):922-32). Briefly, E. Coli BL21(DE3) Codon Plus cells (Stratagene, La Jolla, Calif., USA) containing the expression vector pGEX-Kg/GST-CBS were grown at 37° C. and 180 rpm in LuriaBertani (LB) broth medium containing 100 μg/ml ampicillin to an absorption of 0.6-0.8 at 600 nm. Protein expression was induced by addition of 0.1 mM IPTG (isopropyl-b-D-thiogalactopyranoside) and cells were further incubated at 30° C. overnight. The bacteria were harvested and sonicated in lysis buffer PBS (140 mM NaCl, 2.7 mM KCl, 10 mM Na2HPO4, 1.8 mM KH2PO4, pH 7.8) containing a protease inhibitors cocktail (Sigma). The protein lysate was loaded onto a GSTrap FF 1 ml affinity column (Amersham Biosciences) and the GST-CBS recombinant protein was eluted with the elution buffer (50 mM Tris-HCl, 10 mM reduced glutathione, pH 8.0) and then dialyzed and concentrated in 10 mM sodium phosphate buffer (pH 8.2) and DTT (1 mM).
Measurement of H2S production by recombinant CBS. The measurement of H2S production by recombinant CBS enzyme was performed as described (Asimakopoulou et al. 2013, Br J Pharmacol. 169(4):922-32). Briefly, each test consisted of a 100 μl reaction mixture in 50 mM sodium phosphate buffer pH 8.2 containing 1 μg of the purified human CBS enzyme, 0.01 mM pyridoxal-5′-phosphate (PLP), 10 mM L-cysteine and 0.5 mM homocysteine. […] The reaction was initiated by transferring the Eppendorf tubes from ice to a 37° C. shaking water bath. After 60 minutes of incubation at 37° C., the reaction was terminated by adding 1% ZnAc followed by 10% trichloroacetic acid. Subsequently, N,N-dimethylphenylendiamine sulfate (20 mM in 7.2 M HCl) and FeCl3 (30 mM in 1.2 M HCl) were added and the optical absorbance of the solutions was measured at 650 nm.

Row | Aqueous solubility compared with apigenin, result in words [2] | Aqueous solubility, saturated concentration [2] [mg/mL] | activity at 100 µM [3] [%] | melting point [°C] | SMILES | Inhibitory Effect (%) on PSC proliferation [1] [%] | inhibition at 5 µM [1] [%] | inhibition at 10 µM [1] [%] | inhibition at 20 µM [1] [%] | Antiproliferative effect on PSC, result in words [1]
1 | significantly improved solubility | 17.4 | 129 | 79 to 80 | COc1cc(OC)c2c(=O)cc(-c3ccc(OCCN4CCCCC4)cc3)oc2c1 [Compound 14, 5,7-Dimethoxy-2-(4-(2-piperidin-1-yl-ethoxy)phenyl)-chromen-4-one] | 64 | 45 | 64 | 97 | potent antiproliferative effects
2 |  |  | 127 | 187 to 188 | COc1cc(OC)c2c(=O)cc(-c3ccc(OCCF)cc3)oc2c1 [Compound 8, 2-(4-(2-Fluoroethoxy)phenyl)-5,7-dimethoxy-chromen-4-one] |  |  |  | 21 | slightly increased antiproliferative effects in comparison with 6
3 |  |  | 108 | 115 to 116 | COc1cc(OC)c2c(=O)cc(-c3ccc(OCCN4CCCC4=O)cc3)oc2c1 [Compound 13, 1-(2-(4-(5,7-Dimethoxy-4-oxo-4H-chromen-2-yl)phenoxy)ethyl)-pyrrolidin-2-one] |  | 7 | 14 | 33 | 
4 |  |  | 121 | 202 to 203 | COc1cc(OC)c2c(=O)cc(-c3ccc(OCCBr)cc3)oc2c1 [Compound 7, 2-(4-(2-Bromoethoxy)phenyl)-5,7-dimethoxy-chromen-4-one] |  |  |  | 20 | slightly increased antiproliferative effects in comparison with 6
5 |  |  | 104 | 203 to 204 | COc1cc(OC)c2c(=O)cc(-c3ccc(OCC(O)CO)cc3)oc2c1 (centres unmarked) [Compound 28, 2-(4-(2,3-Dihydroxypropoxy)phenyl)-5,7-dimethoxy-chromen-4-one] |  |  | 11 | 16 | dramatic loss of activities
6 | significantly improved solubility | 13.7 | 131 | 114 to 115 | COc1cc(OC)c2c(=O)cc(-c3ccc(OCCN4CCCC4)cc3)oc2c1 [Compound 16, 5,7-Dimethoxy-2-(4-(2-pyrrolidin-1-yl-ethoxy)phenyl)-chromen-4-one] | 66 | 48 | 66 | 98 | potent antiproliferative effects
7 |  |  | 99.6 | 228 to 229 | O=c1cc(-c2ccc(OCCN3CCCC3)cc2)oc2cc(O)cc(O)c12 [Compound 39] |  | 2 | 71 | 90 | 
